Where two headings read alike, the source gives them in different places.
What was measured:
[1] = system: MDCK cells expressing human MDR1 (P-glycoprotein); assay: MDCK-MDR1 permeability A→B; format: in vitro ADME, Canine
Experimental: ADME studies: Compound A and the compounds of the disclosure were tested for aqueous solubility (KSOL), metabolic stability (human and mouse […]) and permeability (Caco-2 and/or MDR1-MDCK cells) to provide an initial indication of oral bioavailability.
The favorable physicochemical properties are reflected in promising results in in vitro ADME tests. […] Metabolic stability, which was routinely measured with mouse and human hepatocytes, is outstanding, with t, greater than 2 hours for all of the compounds of the disclosure in which it has been measured. Cell permeability was measured using MDCK cells expressing human MDR1 (P-glycoprotein) to assess passive permeability as well as active transport out of the cell. […] Numerous compounds in Table 1 meet these permeability criteria, which is consistent with their design for TPSA <140 Å^2 and increased lipophilicity.
The MDCK-MDR1 permeability A ->B is shown in Table 2 below, where A represents 5-10 cm/s×10^−6; B represents 1-5 cm/s×10^−6; and C represents <1 cm/ss×10^−6. The metabolic stability half time, in both mouse and human hepatocytes, is also shown in Table 2 below, where A′ represents 100-200 minutes; B′ represents 200-300 minutes; and C′ represents >300 minutes.

cGAS = cGAS (Homo sapiens, UniProt Q8N884); assay: Transcreener cGAS enzymatic assay (FP); format: biochemical
cGAS, sequence (Q8N884 whole entry): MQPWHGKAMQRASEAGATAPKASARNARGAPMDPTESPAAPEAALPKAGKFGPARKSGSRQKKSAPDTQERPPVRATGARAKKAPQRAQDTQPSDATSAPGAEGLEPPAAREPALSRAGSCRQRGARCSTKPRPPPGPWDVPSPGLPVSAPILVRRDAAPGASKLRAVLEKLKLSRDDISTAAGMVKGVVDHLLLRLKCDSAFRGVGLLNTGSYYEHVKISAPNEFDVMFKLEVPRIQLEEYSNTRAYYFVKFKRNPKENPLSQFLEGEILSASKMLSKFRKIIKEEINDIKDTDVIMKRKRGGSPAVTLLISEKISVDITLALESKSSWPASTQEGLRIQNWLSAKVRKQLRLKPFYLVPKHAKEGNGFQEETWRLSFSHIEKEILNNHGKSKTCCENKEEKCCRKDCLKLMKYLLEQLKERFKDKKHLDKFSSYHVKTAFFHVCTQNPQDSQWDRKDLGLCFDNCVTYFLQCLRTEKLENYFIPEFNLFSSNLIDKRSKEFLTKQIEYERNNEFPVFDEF
Experimental: Structural, biochemical and biophysical analysis and selectivity profiling: Potency and MOA studies, including Mn^2+ sensitivity, were performed using the Transcreener cGAS enzymatic assay, which is manufactured at BellBrook Labs (Fitchburg, Wisconsin, USA). This homogenous cGAS enzymatic assay was developed with fluorescence polarization (FP) and time-resolved Forster resonance energy transfer (TR-FRET) readouts, as described in International Patent Publication WO 2020/142729, incorporated by reference herein in its entirety. Plates are read on a PHERAstar FSX multimode reader (BMG). The compounds of the disclosure were tested for inhibition of cGAS ([…]) using this cGAS enzymatic assay under standard conditions (100 μM ATP and GTP, 62.5 nM bp ISD, 60 minute reactions), high ATP and GTP (1 mM) to mimic physiological conditions, in the presence of 200 μM MnCl2, and with mouse cGAS under standard conditions.
The IC50 values for FP under standard and under physiological conditions were determined for several exemplary compounds of the invention. The relative activities for FP Standard IC50 are shown in Table 2 below, where A represents <50 nM; B represents 50-100 nM; C represents 100-200 nM; D represents 200 nM-1μM; and E represents 1-10 μM. For the relative activities for FP Physiological IC50, A′ represents <200 nM; B′ represents 200-500 nM; C′ represents 500 nM-1μM; D′ represents 1-5 μM; and E′ represents >5 μM.

[2] = system: IFNβ production in THP-1 cells; assay: IFNβ ELISA in THP-1 cells; format: cell-based, human; conditions: Homo sapiens; THP-1 cells
Excerpt: Cellular assays: The human monocyte cell line THP-1 and human primary PBMCs were used to evaluate the cellular activity of compounds with good biochemical potency. These cells produce a robust cGAS/STING-dependent type I IFN response when stimulated with dsDNA and other pathogen-associated molecular patterns, which was detected using a standard ELISA for IFNβ (R&D Systems). The TBK1 inhibitor, BX-795, which acts downstream of cGAS/STING, was used as a probe.
CETSA was also used to confirm that the compounds are binding to cGAS in cells; THP-1 cells are used for this analysis. Compounds were tested in dose response mode by incubating with cells for 1.5 hours at 37° C., followed by pelleting and re-suspending in PBS, heating to 51.5° C. for 3 min and cooling to room temp. Cells were then lysed, debris, including denatured cGAS, was pelleted and the supernatant was analyzed for soluble cGAS by Western Blot using anti-cGAS primary Ab (Cell Signaling). Band intensity was analyzed using Image J software. Stimulation with cGAMP directly activates STING, circumventing cGAS; this was used to determine if compounds had effects on downstream components of cGAS/STING signaling. The IFN-6 ELISA was used as the primary measure of cellular potency and selectivity (Table 3) and used the reporter gene assays for assessing off-target activity with other pattern recognition receptors.
The ICso values for IFNB ELISA stimulated with THP-1, PBMC, DNA, and cGAMP were determined for several exemplary compounds of the invention, and are provided in Table 3 where A represents <1 μM; B represents 1-2.5 μM; C represents 2.5-10 μM; D represents 10-20 μM; and E represents >20 μM.

[3] = high ATP and GTP (1 mM) to mimic physiological conditions, read-out: IC50 FP Physiological
[4] = standard conditions: 100 μM ATP and GTP, 62.5 nM bp ISD, 60 minute reactions, read-out: IC50 FP Standard

Row | SMILES | MDCK-MDR Permeability A→B [1] | IC50 (cGAS; [3]) [µM] | IC50 (cGAS; [4]) [µM] | IC50 [2] [µM]
1 | Cc1nc(N2C[C@@H](CC(=O)Nc3ccc(N4CCNCC4)cc3)C[C@H]2C(=O)O)c2oc3ccccc3c2n1 [Compound 8, (2S,4R)-1-(2-methylbenzofuro[3,2-d]pyrimidin-4-yl)-4-(2-oxo-2-((4-(piperazin-1-yl)phenyl)amino)ethyl)pyrrolidine-2-carboxylic acid] | C (C represents <1 cm/ss×10^−6) | > 5 | 1 to 10 | > 20
2 | Cc1nc(N2C[C@@H](CC(=O)Nc3ccc(N4CCN(C)CC4)cc3)C[C@H]2C(=O)O)c2oc3ccccc3c2n1 [Compound 9, (2S,4R)-1-(2-methylbenzofuro[3,2-d]pyrimidin-4-yl)-4-(2-((4-(4-methylpiperazin-1-yl)phenyl)amino)-2-oxoethyl)pyrrolidine-2-carboxylic acid] | C (C represents <1 cm/ss×10^−6) | > 5 | 1 to 10 | > 20
3 | COc1cccc(NC(=O)C[C@H]2C[C@@H](C(=O)O)N(c3nc(C)nc4c3oc3ccccc34)C2)c1 [Compound 13, (2S,4R)-4-(2-((3-methoxyphenyl)amino)-2-oxoethyl)-1-(2-methylbenzofuro[3,2-d]pyrimidin-4-yl)pyrrolidine-2-carboxylic acid] | C (C represents <1 cm/ss×10^−6) | 1 to 5 | 0.2 to 1 | 10 to 20
4 | Cc1nc(N2C[C@@H](CC(=O)Nc3ccc(-c4ccc(O)nc4)cc3)C[C@H]2C(=O)O)c2oc3ccccc3c2n1 [Compound 47, (28.4R)-4-(2-((4-(6-hydroxypyridin-3-yl)phenyl)amino)-2-oxoethyl)-1-(2-methylbenzofuro[3,2-d]pyrimidin-4-yl)pyrrolidine-2-carboxylic acid] |  | 1 to 5 | 0.1 to 0.2 | 
5 | Cc1nc(N2C[C@@H](CC(=O)Nc3ccc(N4CCOC4=O)cc3)C[C@H]2C(=O)O)c2oc3ccccc3c2n1 [Compound 52, (2S,4R)-1-(2-methylbenzofuro[3,2-d]pyrimidin-4-yl)-4-(2-oxo-2-((4-(2-oxooxazolidin-3-yl)phenyl)amino)ethyl)pyrrolidine-2-carboxylic acid] |  | 1 to 5 | 0.1 to 0.2 | 
6 | Cc1nc(N2C[C@@H](CC(=O)Nc3ccc(N4CCC(O)CC4)cc3)C[C@H]2C(=O)O)c2oc3ccccc3c2n1 [Compound 53, (2S,4R)-4-(2-((4-(4-hydroxypiperidin-1-yl)phenyl)amino)-2-oxoethyl)-1-(2-methylbenzofuro[3,2-d]pyrimidin-4-yl)pyrrolidine-2-carboxylic acid] |  | 1 to 5 | 0.2 to 1 | > 20
7 | Cc1nc(N2C[C@@H](CC(=O)Nc3ccc(-c4cccc(CO)c4)cc3)C[C@H]2C(=O)O)c2oc3ccccc3c2n1 [Compound 59, (2S,4R)-4-(2-((3′-(hydroxymethyl)-[1,1′-biphenyl]-4-yl)amino)-2-oxoethyl)-1-(2-methylbenzofuro[3,2-d]pyrimidin-4-yl)pyrrolidine-2-carboxylic acid] |  | 0.5 to 1 | < 0.05 | 
8 | Cc1nc(N2C[C@@H](CC(=O)Nc3ccc(-c4ccc(CO)cc4)cc3)C[C@H]2C(=O)O)c2oc3ccccc3c2n1 [Compound 60, (28.4R)-4-(2-((4′-(hydroxymethyl)-[1,1′-biphenyl]-4-yl)amino)-2-oxoethyl)-1-(2-methylbenzofuro[3,2-d]pyrimidin-4-yl)pyrrolidine-2-carboxylic acid] |  | 0.2 to 0.5 | < 0.05 | 

Continued, values first:

Row | MDCK-MDR Permeability A→B [1] | IC50 (cGAS; [3]) [µM] | IC50 (cGAS; [4]) [µM] | IC50 [2] [µM] | SMILES
9 | C (C represents <1 cm/ss×10^−6) | 0.2 to 0.5 | < 0.05 | > 20 | Cc1nc(N2C[C@@H](CC(=O)Nc3ccc(-c4cn[nH]c4)cc3)C[C@H]2C(=O)O)c2oc3ccccc3c2n1 [Compound 10, (2S,4R)-4-(2-((4-(1H-pyrazol-4-yl)phenyl)amino)-2-oxoethyl)-1-(2-methylbenzofuro[3,2-d]pyrimidin-4-yl)pyrrolidine-2-carboxylic acid]
10 | C (C represents <1 cm/ss×10^−6) | 0.2 to 0.5 | 0.05 to 0.1 | > 20 | Cc1nc(N2C[C@@H](CC(=O)Nc3cccc(-c4cn[nH]c4)c3)C[C@H]2C(=O)O)c2oc3ccccc3c2n1 [Compound 11, (25,4R)-4-(2-((3-(1H-pyrazol-4-yl)phenyl)amino)-2-oxoethyl)-1-(2-methylbenzofuro[3,2-d]pyrimidin-4-yl)pyrrolidine-2-carboxylic acid]
11 | C (C represents <1 cm/ss×10^−6) | > 5 | 1 to 10 | > 20 | COc1ccccc1NC(=O)C[C@H]1C[C@@H](C(=O)O)N(c2nc(C)nc3c2oc2ccccc23)C1 [Compound 14, (28.4R)-4-(2-((2-methoxyphenyl)amino)-2-oxoethyl)-1-(2-methylbenzofuro[3,2-d]pyrimidin-4-yl)pyrrolidine-2-carboxylic acid]
12 | C (C represents <1 cm/ss×10^−6) | > 5 | 0.2 to 1 | > 20 | Cc1nc(N2C[C@@H](CC(=O)Nc3ccccc3C)C[C@H]2C(=O)O)c2oc3ccccc3c2n1 [Compound 17, (2S,4R)-1-(2-methylbenzofuro[3,2-d]pyrimidin-4-yl)-4-(2-oxo-2-(o-tolylamino)ethyl)pyrrolidine-2-carboxylic acid]
13 |  | 0.5 to 1 | < 0.05 |  | Cc1nc(N2C[C@@H](CC(=O)Nc3ccc(-c4ccnc(O)c4)cc3)C[C@H]2C(=O)O)c2oc3ccccc3c2n1 [Compound 48, (2S,4R)-4-(2-((4-(2-hydroxypyridin-4-yl)phenyl)amino)-2-oxoethyl)-1-(2-methylbenzofuro[3,2-d]pyrimidin-4-yl)pyrrolidine-2-carboxylic acid]
14 |  | 0.5 to 1 | 0.1 to 0.2 | > 20 | Cc1nc(N2C[C@@H](CC(=O)Nc3cccc(-c4c[nH]cn4)c3)C[C@H]2C(=O)O)c2oc3ccccc3c2n1 [Compound 49, (28,4R)-4-(2-((3-(1H-imidazol-4-yl)phenyl)amino)-2-oxoethyl)-1-(2-methylbenzofuro[3,2-d]pyrimidin-4-yl)pyrrolidine-2-carboxylic acid]
15 |  | 1 to 5 | 0.2 to 1 |  | Cc1nc(N2C[C@@H](CC(=O)Nc3ccc(-c4ccccc4)nn3)C[C@H]2C(=O)O)c2oc3ccccc3c2n1 [Compound 64, (2S,4R)-1-(2-methylbenzofuro[3,2-d]pyrimidin-4-yl)-4-(2-oxo-2-((6-phenylpyridazin-3-yl)amino)ethyl)pyrrolidine-2-carboxylic acid]
16 |  | 0.5 to 1 | 0.05 to 0.1 |  | Cc1nc(N2C[C@@H](CC(=O)Nc3cnc(-c4ccccc4)nc3)C[C@H]2C(=O)O)c2oc3ccccc3c2n1 [Compound 65, (2S,4R)-1-(2-methylbenzofuro[3,2-d]pyrimidin-4-yl)-4-(2-oxo-2-((2-phenylpyrimidin-5-yl)amino)ethyl)pyrrolidine-2-carboxylic acid]
